IC50 data for 26 compounds are collected here from US20220135591A1, “HETEROCYCLIC COMPOUNDS AS INHIBITORS OF MONOACYLGLYCEROL LIPASE (MAGL)” (Hoffmann-La Roche Inc., priority 2019, published 2022).

This experiment concerns the target T1, MAGL (Homo sapiens, UniProt Q99685).
T1 sequence (Q99685 1-303): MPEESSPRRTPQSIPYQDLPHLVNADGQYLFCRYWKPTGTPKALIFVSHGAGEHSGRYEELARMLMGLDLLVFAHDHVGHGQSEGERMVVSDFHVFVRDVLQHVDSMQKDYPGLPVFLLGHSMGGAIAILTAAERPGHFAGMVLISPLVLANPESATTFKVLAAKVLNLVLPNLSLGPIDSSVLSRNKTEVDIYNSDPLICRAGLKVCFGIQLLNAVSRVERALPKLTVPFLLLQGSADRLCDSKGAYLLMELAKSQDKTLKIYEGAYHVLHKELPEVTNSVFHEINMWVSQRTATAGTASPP
As to the kind of experiment: 2-AG assay: MAGL inhibitory activity by hydrolysis of 2-arachidonoylglycerol to arachidonic acid, mass spectrometry. Particulars: 2-AG assay (values marked [b]). It is filed as biochemical. As for the experimental part: Alternatively, compounds were profiled for MAGL inhibitory activity by determining the enzymatic activity by following the hydrolysis of the natural substrate 2-arachidonoylglycerol (2-AG) resulting in arachidonic acid, which can be followed by mass spectrometry. This assay is hereinafter abbreviated “2-AG assay”.
The 2-AG assay was carried out in 384 well assay plates (PP, Greiner Cat #784201) in a total volume of 20 μL. Compound dilutions were made in 100% DMSO (VWR Chemicals 23500.297) in a polypropylene plate in 3-fold dilution steps to give a final concentration range in the assay from 12.5 μM to […]. 0.25 μL compound dilutions (100% DMSO) were added to 9 μL MAGL in assay buffer (50 mM TRIS (GIBCO, 15567-027), 1 mM EDTA (Fluka, 03690-100 mL), 0.01% (v/v) Tween. After shaking, the plate was incubated for 15 min at RT. To start the reaction, 10 μL 2-arachidonoylglycerol in assay buffer was added. The final concentrations in the assay was […] and 8 μM 2-arachidonoylglyerol. After shaking and 30 min incubation at RT, the reaction was quenched by the addition of 40 μL of ACN containing 4 μM of d8-arachidonic acid. The amount of arachidonic acid was traced by an online SPE system (Agilent Rapidfire) coupled to a triple quadrupole mass spectrometer (Agilent 6460). A C18 SPE cartridge (G9205A) was used in an ACN/water liquid setup. The mass spectrometer was operated in negative electrospray mode following the mass transitions 303.1→259.1 for arachidonic acid and 311.1→267.0 for d8-arachidonic acid. The activity of the compounds was calculated based on the ratio of intensities [arachidonic acid/d8-arachidonic acid].
With `Cc1cc(C(=O)N2CCN(c3nc4nc(Cl)ccc4o3)CC2)ccc1-c1ncn(C(C)(C)C)n1` [Example 97, (4-(1-(tert-butyl)-1H-1,2,4-triazol-3-yl)-3-methylphenyl)(4-(5-chlorooxazolo[4,5-b]pyridin-2-yl)piperazin-1-yl)methanone], the IC50 worked out at 12 nM. That is a double-digit nanomolar value.
For `O=C(c1ccc(-c2cn(CC(F)(F)F)nn2)cc1)N1CCN(c2nc3nc(Cl)ccc3o2)CC1` [Example 98, (4-(5-chlorooxazolo[4,5-b]pyridin-2-yl)piperazin-1-yl)(4-(1-(2,2,2-trifluoroethyl)-1H-1,2,3-triazol-4-yl)phenyl)methanone] the value was 144 nM.
For `Cc1ccc2oc(N3CCN(C(=O)c4ccc(-c5cn(CC(F)(F)F)nn5)cc4)CC3)nc2n1` [Example 99, (4-(5-methyloxazolo[4,5-b]pyridin-2-yl)piperazin-1-yl)(4-(1-(2,2,2-trifluoroethyl)-1H-1,2,3-triazol-4-yl)phenyl)methanone] the value was 523 nM; for `Cc1ccc2oc(N3CCN(C(=O)c4ccc(-c5cn(CC6(C)COC6)nn5)cc4)CC3)nc2n1` [Example 100, (4-(5-methyloxazolo[4,5-b]pyridin-2-yl)piperazin-1-yl)(4-(1-((3-methyloxetan-3-yl)methyl)-1H-1,2,3-triazol-4-yl)phenyl)methanone], 1080 nM.
In the case of `CC1(Cn2cc(-c3ccc(C(=O)N4CCN(c5nc6nc(Cl)ccc6o5)CC4)cc3)nn2)COC1` [Example 101, (4-(5-chlorooxazolo[4,5-b]pyridin-2-yl)piperazin-1-yl)(4-(1-((3-methyloxetan-3-yl)methyl)-1H-1,2,3-triazol-4-yl)phenyl)methanone] it was 609 nM; in that of `O=C(C#Cc1ccccc1)N1CCN(c2nc3nc(Cl)ccc3o2)CC1` [Example 102, 1-(4-(5-chlorooxazolo[4,5-b]pyridin-2-yl)piperazin-1-yl)-3-phenylprop-2-yn-1-one], 932 nM.
`O=C(C#Cc1ccc(Cl)cc1)N1CCN(c2nc3nc(Cl)ccc3o2)CC1` [Example 103, 1-(4-(5-chlorooxazolo[4,5-b]pyridin-2-yl)piperazin-1-yl)-3-(4-chlorophenyl)prop-2-yn-1-one] gave a 50% inhibitory concentration (IC50) of 452 nM.
In the case of `C#Cc1ccc(C(=O)N2CCN(c3nc4nc(Cl)ccc4o3)CC2)cc1OC` [Example 104, (4-(5-chlorooxazolo[4,5-b]pyridin-2-yl)piperazin-1-yl)(4-ethynyl-3-methoxyphenyl)methanone] it was 109 nM; in that of `O=C(c1ccc(-c2noc(C34CC(C3)C4)n2)cc1)N1CCN(c2nc3nc(Cl)ccc3o2)CC1` [Example 105, [4-[5-(3-bicyclo[1.1.1]pentanyl)-1,2,4-oxadiazol-3-yl]phenyl]-[4-(5-chlorooxazolo[4,5-b]pyridin-2-yl)piperazin-1-yl]methanone], 9 nM.
Consider `Cc1ccc2oc(N3CCN(C(=O)c4ccc(-c5ncn(C(C)(C)C)n5)c(F)c4)CC3)nc2n1` [Example 106, [4-(1-tert-butyl-1,2,4-triazol-3-yl)-3-fluorophenyl]-[4-(5-methyl-[1,3]oxazolo[4,5-b]pyridin-2-yl)piperazin-1-yl]methanone], for which the midpoint of inhibition, the IC50, lay at 36 nM.
For `CC(C)(C)n1cnc(-c2ccc(C(=O)N3CCN(c4nc5nc(Cl)ccc5o4)CC3)cc2F)n1` [Example 107, [4-(1-tert-butyl-1,2,4-triazol-3-yl)-3-fluorophenyl]-[4-(5-chloro-[1,3]oxazolo[4,5-b]pyridin-2-yl)piperazin-1-yl]methanone] the value was 15 nM; for `Cc1ccc2oc(N3CCN(C(=O)c4ccc(-c5cn(C6(C(F)(F)F)CC6)nn5)cc4)CC3)nc2n1` [Example 108, [4-(5-methyl-[1,3]oxazolo[4,5-b]pyridin-2-yl)piperazin-1-yl]-[4-[1-[1-(trifluoromethyl)cyclopropyl]triazol-4-yl]phenyl]methanone], 154 nM.
For `Cc1ccc2oc(N3CCN(C(=O)c4ccc(-c5cn(C6(C)COC6)nn5)cc4)CC3)nc2n1` [Example 109, [4-(5-methyl-[1,3]oxazolo[4,5-b]pyridin-2-yl)piperazin-1-yl]-[4-[1-(3-methyloxetan-3-yl)triazol-4-yl]phenyl]methanone] the value was 2520 nM; for `CC1(n2cc(-c3ccc(C(=O)N4CCN(c5nc6nc(Cl)ccc6o5)CC4)cc3)nn2)COC1` [Example 110, [4-(5-chloro-[1,3]oxazolo[4,5-b]pyridin-2-yl)piperazin-1-yl]-[4-[1-(3-methyloxetan-3-yl)triazol-4-yl]phenyl]methanone], 859 nM.
In the case of `Cc1ccc2oc(N3CCN(C(=O)c4ccc(-c5ncn(C(C)(C)C)n5)c(C(F)(F)F)c4)CC3)nc2n1` [Example 111, [4-(1-tert-butyl-1,2,4-triazol-3-yl)-3-(trifluoromethyl)phenyl]-[4-(5-methyl-[1,3]oxazolo[4,5-b]pyridin-2-yl)piperazin-1-yl]methanone] it was 28 nM; in that of `CC(C)(C)n1cnc(-c2ccc(C(=O)N3CCN(c4nc5nc(Cl)ccc5o4)CC3)cc2C(F)(F)F)n1` [Example 112, [4-(1-tert-butyl-1,2,4-triazol-3-yl)-3-(trifluoromethyl)phenyl]-[4-(5-chloro-[1,3]oxazolo[4,5-b]pyridin-2-yl)piperazin-1-yl]methanone], 12 nM.
In turn, `Cc1ccc2oc(N3CCN(C(=O)c4ccc(-c5cn(CC6COC6)nn5)cc4)CC3)nc2n1` [Example 113, [4-(5-methyl-[1,3]oxazolo[4,5-b]pyridin-2-yl)piperazin-1-yl]-[4-[1-(oxetan-3-ylmethyl)triazol-4-yl]phenyl]methanone] gave a half-inhibitory concentration (IC50) of 4270 nM.
For `O=C(c1ccc(-c2cn(CC3COC3)nn2)cc1)N1CCN(c2nc3nc(Cl)ccc3o2)CC1` [Example 114, [4-(5-chloro-[1,3]oxazolo[4,5-b]pyridin-2-yl)piperazin-1-yl]-[4-[1-(oxetan-3-ylmethyl)triazol-4-yl]phenyl]methanone], inhibition was half-maximal at 5550 nM (IC50). The IC50 values of the last two compounds are within 1.5-fold of each other.
In the case of `CC(C)(C)c1nnc(-c2ccc(C(=O)N3CCN(c4nc5nc(Cl)ccc5o4)CC3)cc2Cl)o1` [Example 115, (4-(5-(tert-butyl)-1,3,4-oxadiazol-2-yl)-3-chlorophenyl)(4-(5-chlorooxazolo[4,5-b]pyridin-2-yl)piperazin-1-yl)methanone] it was 8 nM; in that of `Cc1ccc2oc(N3CCN(C(=O)c4ccc(-c5nnc(C(C)(C)C)o5)c(Cl)c4)CC3)nc2n1` [Example 117, (4-(5-(tert-butyl)-1,3,4-oxadiazol-2-yl)-3-chlorophenyl)(4-(5-methyloxazolo[4,5-b]pyridin-2-yl)piperazin-1-yl)methanone], 34 nM; in that of `Cc1ccc2oc(N3CCN(C(=O)c4cc(O)c(-c5nnc(C(C)(C)C)o5)c(F)c4)CC3)nc2n1` [Example 118, (4-(5-(tert-butyl)-1,3,4-oxadiazol-2-yl)-3-fluoro-5-hydroxyphenyl)(4-(5-methyloxazolo[4,5-b]pyridin-2-yl)piperazin-1-yl)methanone], 368 nM.
For `Cn1nc(C(C)(C)C)nc1-c1ccc(C(=O)N2CCN(c3nc4nc(Cl)ccc4o3)CC2)cc1` [Example 119, [4-(5-tert-butyl-2-methyl-1,2,4-triazol-3-yl)phenyl]-[4-(5-chlorooxazolo[4,5-b]pyridin-2-yl)piperazin-1-yl]methanone] the value was 140 nM; for `Cc1cc(C(=O)N2CCN(c3nc4nc(Cl)ccc4o3)CC2)cnc1-n1cc(C(C)(C)C)cn1` [Example 120, [6-(4-tert-butylpyrazol-1-yl)-5-methylpyridin-3-yl]-[4-(5-chloro-[1,3]oxazolo[4,5-b]pyridin-2-yl)piperazin-1-yl]methanone], 4 nM.
For `Cc1ccc2oc(N3CCN(C(=O)c4ccc(-c5nnc(C(C)(C)C)o5)c(C(F)(F)F)c4)CC3)nc2n1` [Example 121, [4-(5-tert-butyl-1,3,4-oxadiazol-2-yl)-3-(trifluoromethyl)phenyl]-[4-(5-methyloxazolo[4,5-b]pyridin-2-yl)piperazin-1-yl]methanone] the value was 13 nM; for `CC(C)(C)c1nnc(-c2ccc(C(=O)N3CCN(c4nc5nc(Cl)ccc5o4)CC3)cc2C(F)(F)F)o1` [Example 122, [4-(5-tert-butyl-1,3,4-oxadiazol-2-yl)-3-(trifluoromethyl)phenyl]-[4-(5-chlorooxazolo[4,5-b]pyridin-2-yl)piperazin-1-yl]methanone], 3 nM; for `COc1cc(C(=O)N2CCN(c3nc4nc(C)ccc4o3)CC2)ccc1-c1ncn(C(C)(C)C)n1` [Example 123, (4-(1-(tert-butyl)-1H-1,2,4-triazol-3-yl)-3-methoxyphenyl)(4-(5-methyloxazolo[4,5-b]pyridin-2-yl)piperazin-1-yl)methanone], 174 nM.

As a reminder, the IC50 is the concentration needed to halve the response being measured. A higher IC50 goes with weaker potency.
